What all share (type): biochemical
In test [1] the target is T1, Lck (Homo sapiens, UniProt P06239).
T1 construct: Kinases are expressed as either kinase domains or full length constructs; made in house
The experiment in a line: Kinase inhibition assay (33P transfer), Lck. To be noted: read-out: Lck-1. A digest of the protocol:
(§1)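 GST/His-tagged kinase (domain or full length; E. coli or baculovirus) + [33P]ATP on plates coated with poly(Glu,Tyr) 4:1 or poly(Arg,Ser) 3:1; incubate, wash 0.5% H3PO4, add scintillant, count.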

Test [2] deals with T2, Lyn (Homo sapiens, UniProt P07948).
T2 construct: Kinases are expressed as either kinase domains or full length constructs; made in house
The experiment in a line: Kinase inhibition assay (33P transfer), Lyn. To be noted: Table 6, Lyn-1 kinase inhibition class. A digest of the protocol: (§2)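 IC50: inhibitor concentration lowering 33P incorporation into immobilised substrate by 50%. Label transferred from ATP to poly(Glu,Tyr) 4:1 or poly(Arg,Ser) 3:1 is measured after a 0.5% phosphoric acid wash by liquid scintillation.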

Test [3] deals with T3, Src (Homo sapiens, UniProt P12931).
T3 construct: Kinases are expressed as either kinase domains or full length constructs; made in house
Briefly: Kinase inhibition assay (33P transfer), Src. To be noted: Table 6, Src-1 kinase inhibition class. An outline of the steps: as §2

Test [4] addresses T4, Fyn (Homo sapiens, UniProt P06241).
T4 construct: Kinases are expressed as either kinase domains or full length constructs; made in house
Briefly: Kinase inhibition assay (33P transfer), Fyn. To be noted: read-out: Fyn-1. An outline of the steps:
as §2

In test [5] the target is T5, Zap-70 (Homo sapiens, UniProt P43403).
T5 construct: Kinases are expressed as either kinase domains or full length constructs; made in house
T5 sequence (P43403 1-619): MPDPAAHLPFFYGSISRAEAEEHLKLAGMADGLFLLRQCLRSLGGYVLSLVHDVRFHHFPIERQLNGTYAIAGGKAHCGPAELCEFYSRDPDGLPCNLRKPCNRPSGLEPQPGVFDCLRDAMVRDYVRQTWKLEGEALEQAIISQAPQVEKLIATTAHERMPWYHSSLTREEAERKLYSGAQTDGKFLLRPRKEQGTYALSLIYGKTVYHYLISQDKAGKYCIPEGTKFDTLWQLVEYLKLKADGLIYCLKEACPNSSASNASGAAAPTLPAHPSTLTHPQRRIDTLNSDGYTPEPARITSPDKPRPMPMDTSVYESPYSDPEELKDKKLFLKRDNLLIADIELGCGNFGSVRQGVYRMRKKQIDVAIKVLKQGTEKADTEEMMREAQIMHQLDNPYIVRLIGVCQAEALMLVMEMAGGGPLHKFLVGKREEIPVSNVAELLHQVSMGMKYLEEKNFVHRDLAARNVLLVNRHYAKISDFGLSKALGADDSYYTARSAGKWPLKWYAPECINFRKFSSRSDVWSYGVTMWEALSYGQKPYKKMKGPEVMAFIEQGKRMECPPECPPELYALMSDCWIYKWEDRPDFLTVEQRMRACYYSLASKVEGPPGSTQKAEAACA
The experiment in a line: Kinase inhibition assay (33P transfer), Zap-70. To be noted: read-out: Zap-1. An outline of the steps:
as §1

Test [6] deals with T6, Itk (Homo sapiens, UniProt Q08881).
T6 construct: Kinases are expressed as either kinase domains or full length constructs; made in house
T6 sequence (Q08881 1-620): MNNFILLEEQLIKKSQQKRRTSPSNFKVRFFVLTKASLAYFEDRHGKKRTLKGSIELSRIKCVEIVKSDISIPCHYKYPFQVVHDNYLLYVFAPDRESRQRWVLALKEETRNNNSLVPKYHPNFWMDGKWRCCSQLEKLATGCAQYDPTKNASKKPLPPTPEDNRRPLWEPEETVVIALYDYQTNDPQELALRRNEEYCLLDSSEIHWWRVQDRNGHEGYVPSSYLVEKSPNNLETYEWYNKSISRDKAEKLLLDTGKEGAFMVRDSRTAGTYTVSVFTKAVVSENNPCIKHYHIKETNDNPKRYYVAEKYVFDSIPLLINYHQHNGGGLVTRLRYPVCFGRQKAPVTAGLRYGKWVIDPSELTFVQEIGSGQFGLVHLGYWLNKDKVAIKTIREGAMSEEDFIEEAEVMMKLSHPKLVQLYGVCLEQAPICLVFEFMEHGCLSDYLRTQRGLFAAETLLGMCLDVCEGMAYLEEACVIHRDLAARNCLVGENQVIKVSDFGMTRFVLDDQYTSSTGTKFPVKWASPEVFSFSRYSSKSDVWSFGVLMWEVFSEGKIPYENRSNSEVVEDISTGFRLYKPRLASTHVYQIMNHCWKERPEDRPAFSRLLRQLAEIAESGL
The experiment in a line: Kinase inhibition assay (33P transfer), Itk. Conditions: read-out: Itk-1. A digest of the protocol:
as §2

In test [7] the target is T7, EGFR (Homo sapiens, UniProt P00533).
T7 construct: Kinases are expressed as either kinase domains or full length constructs; made in house
The experiment in a line: Kinase inhibition assay (33P transfer), EGFR. To be noted: Table 2, kinase inhibition class; read-out: EGFR-1. A digest of the protocol:
as §2

Test [8] has as its target T8, ErbB2 (Homo sapiens, UniProt P04626).
T8 construct: Kinases are expressed as either kinase domains or full length constructs; made in house
The experiment in a line: Kinase inhibition assay (33P transfer), ErbB2. Conditions: read-out: ErbB2-2. An outline of the steps: as §2

The target in test [9] is T9, Kdr (Homo sapiens, UniProt P35968).
T9 construct: Kinases are expressed as either kinase domains or full length constructs; made in house
Briefly: Kinase inhibition assay (33P transfer), Kdr. Conditions: read-out: KDR-1. An outline of the steps:
as §1

For test [10], the target named is T10, Flt-1 (Homo sapiens, UniProt P17948).
T10 construct: Kinases are expressed as either kinase domains or full length constructs; made in house
Briefly: Kinase inhibition assay (33P transfer), Flt-1. A digest of the protocol:
as §2

Test [11] concerns the target T11, Tek (Homo sapiens, UniProt Q02763).
T11 construct: Kinases are expressed as either kinase domains or full length constructs; made in house
Briefly: Kinase inhibition assay (33P transfer), Tek. Conditions: read-out: Tek-1. A digest of the protocol: as §2

Test [12] concerns the target T12, c-Met (Homo sapiens, UniProt P08581).
T12 construct: Kinases are expressed as either kinase domains or full length constructs; made in house
Briefly: Kinase inhibition assay (33P transfer), c-Met. Conditions: Table 2, kinase inhibition class; read-out: Met-1. An outline of the steps: as §2

Test [13] concerns the target T13, AKT (Homo sapiens, UniProt Q9Y243).
T13 construct: Kinases are expressed as either kinase domains or full length constructs; made in house
Briefly: Kinase inhibition assay (33P transfer), AKT. To be noted: Table 2, kinase inhibition class; read-out: AKT3-1. A digest of the protocol: as §1

Test [14] has as its target T14, IGFR-1 (Homo sapiens, UniProt P08069).
T14 construct: Kinases are expressed as either kinase domains or full length constructs; made in house
The experiment in a line: Kinase inhibition assay, IGFR-1 (Table 2). To be noted: Table 2, kinase inhibition class.

The target of test [15] is T15, PDGFRB (Homo sapiens, UniProt P09619).
T15 construct: Kinases are expressed as either kinase domains or full length constructs; made in house
The experiment in a line: Kinase inhibition assay (33P transfer), PDGFRB. Conditions: read-out: PDGFRB-1.

In test [16] the target is T16, Hck-1 (Homo sapiens, UniProt P08631).
T16 construct: Kinases are expressed as either kinase domains or full length constructs; made in house
The experiment in a line: Kinase inhibition assay (33P transfer), Hck. Conditions: Table 6, Hck-1 kinase inhibition class.

For test [17], the target named is T17, ErbB4 (Homo sapiens, UniProt Q15303).
T17 construct: Kinases are expressed as either kinase domains or full length constructs; made in house
The experiment in a line: Kinase inhibition assay (33P transfer), ErbB4. To be noted: read-out: ErbB4-1.

Test [18] has as its target T18, Ret-1 (Homo sapiens, UniProt P07949).
T18 construct: Kinases are expressed as either kinase domains or full length constructs; made in house
Briefly: Kinase inhibition assay (33P transfer), Ret. To be noted: Table 6, Ret-1 kinase inhibition class.

Test [19] concerns the target T19, FGFR1 (Homo sapiens, UniProt P11362).
T19 construct: Kinases are expressed as either kinase domains or full length constructs; made in house
The experiment in a line: Kinase inhibition assay (33P transfer), FGFR1. Conditions: read-out: FGFR1-1.

T3 sequence (P12931 whole entry, species assumed, the tested form may be a part): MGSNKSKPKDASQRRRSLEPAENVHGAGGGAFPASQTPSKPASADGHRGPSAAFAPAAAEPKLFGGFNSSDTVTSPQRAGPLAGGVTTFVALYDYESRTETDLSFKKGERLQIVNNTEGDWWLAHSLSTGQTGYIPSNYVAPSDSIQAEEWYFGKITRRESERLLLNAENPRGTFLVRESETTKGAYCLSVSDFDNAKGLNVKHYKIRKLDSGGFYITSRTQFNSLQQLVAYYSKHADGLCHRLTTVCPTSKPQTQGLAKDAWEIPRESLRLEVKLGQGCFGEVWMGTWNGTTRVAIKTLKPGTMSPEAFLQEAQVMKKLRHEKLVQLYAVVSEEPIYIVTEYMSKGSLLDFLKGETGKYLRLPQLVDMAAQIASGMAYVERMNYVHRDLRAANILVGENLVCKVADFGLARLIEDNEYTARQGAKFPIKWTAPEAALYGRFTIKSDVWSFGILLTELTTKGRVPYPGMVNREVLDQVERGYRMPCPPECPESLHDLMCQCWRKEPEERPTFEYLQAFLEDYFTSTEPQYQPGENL
T15 sequence (P09619 33-1106, species assumed): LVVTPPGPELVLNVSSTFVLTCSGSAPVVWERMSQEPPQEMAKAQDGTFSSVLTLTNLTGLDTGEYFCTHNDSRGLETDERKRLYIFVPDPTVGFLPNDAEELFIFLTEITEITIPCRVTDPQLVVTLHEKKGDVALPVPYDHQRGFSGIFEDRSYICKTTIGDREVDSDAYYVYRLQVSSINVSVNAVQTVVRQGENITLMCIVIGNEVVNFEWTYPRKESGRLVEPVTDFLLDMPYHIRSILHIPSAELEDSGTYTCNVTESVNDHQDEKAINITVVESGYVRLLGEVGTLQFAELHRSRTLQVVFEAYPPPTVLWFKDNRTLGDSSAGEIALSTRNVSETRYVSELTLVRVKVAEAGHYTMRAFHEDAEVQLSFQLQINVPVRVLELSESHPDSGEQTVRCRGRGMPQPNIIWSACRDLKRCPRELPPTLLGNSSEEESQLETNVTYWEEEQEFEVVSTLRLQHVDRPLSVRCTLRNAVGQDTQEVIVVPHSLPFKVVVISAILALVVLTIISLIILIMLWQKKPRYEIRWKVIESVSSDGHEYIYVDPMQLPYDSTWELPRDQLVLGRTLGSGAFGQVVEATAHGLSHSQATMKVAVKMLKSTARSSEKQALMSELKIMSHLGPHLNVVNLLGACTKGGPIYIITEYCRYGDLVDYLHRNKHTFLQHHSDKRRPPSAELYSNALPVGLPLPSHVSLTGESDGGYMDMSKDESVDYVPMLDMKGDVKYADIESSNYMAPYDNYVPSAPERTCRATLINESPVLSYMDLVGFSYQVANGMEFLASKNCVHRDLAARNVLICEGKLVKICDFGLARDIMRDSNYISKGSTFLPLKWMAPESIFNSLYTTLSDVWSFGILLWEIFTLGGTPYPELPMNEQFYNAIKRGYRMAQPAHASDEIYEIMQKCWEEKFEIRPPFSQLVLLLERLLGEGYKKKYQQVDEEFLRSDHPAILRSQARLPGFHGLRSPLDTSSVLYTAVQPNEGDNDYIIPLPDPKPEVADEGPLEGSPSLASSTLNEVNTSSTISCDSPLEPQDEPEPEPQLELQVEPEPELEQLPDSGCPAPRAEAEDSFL
T19 sequence (P11362 22-822, species assumed): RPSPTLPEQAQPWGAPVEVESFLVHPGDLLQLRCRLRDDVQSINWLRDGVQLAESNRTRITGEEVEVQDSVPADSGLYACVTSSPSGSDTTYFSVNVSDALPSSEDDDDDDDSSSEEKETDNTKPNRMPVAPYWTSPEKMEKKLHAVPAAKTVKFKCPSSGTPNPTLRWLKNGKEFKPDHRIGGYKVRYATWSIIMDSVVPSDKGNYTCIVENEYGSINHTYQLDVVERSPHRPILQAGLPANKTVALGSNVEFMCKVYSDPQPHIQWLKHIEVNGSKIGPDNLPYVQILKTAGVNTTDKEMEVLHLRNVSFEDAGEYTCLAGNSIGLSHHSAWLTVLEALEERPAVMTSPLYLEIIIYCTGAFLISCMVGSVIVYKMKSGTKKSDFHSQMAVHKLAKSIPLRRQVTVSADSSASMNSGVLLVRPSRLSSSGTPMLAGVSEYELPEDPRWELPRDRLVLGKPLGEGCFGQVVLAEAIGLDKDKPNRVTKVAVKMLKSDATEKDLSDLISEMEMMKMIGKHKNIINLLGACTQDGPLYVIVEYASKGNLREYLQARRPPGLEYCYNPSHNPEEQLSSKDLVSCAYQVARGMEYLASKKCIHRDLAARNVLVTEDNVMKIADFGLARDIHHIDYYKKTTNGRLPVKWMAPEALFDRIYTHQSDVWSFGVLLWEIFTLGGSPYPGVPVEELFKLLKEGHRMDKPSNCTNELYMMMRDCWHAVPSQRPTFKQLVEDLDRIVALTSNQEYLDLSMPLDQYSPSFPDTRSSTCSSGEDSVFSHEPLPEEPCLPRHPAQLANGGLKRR
T18 sequence (P07949 29-1114): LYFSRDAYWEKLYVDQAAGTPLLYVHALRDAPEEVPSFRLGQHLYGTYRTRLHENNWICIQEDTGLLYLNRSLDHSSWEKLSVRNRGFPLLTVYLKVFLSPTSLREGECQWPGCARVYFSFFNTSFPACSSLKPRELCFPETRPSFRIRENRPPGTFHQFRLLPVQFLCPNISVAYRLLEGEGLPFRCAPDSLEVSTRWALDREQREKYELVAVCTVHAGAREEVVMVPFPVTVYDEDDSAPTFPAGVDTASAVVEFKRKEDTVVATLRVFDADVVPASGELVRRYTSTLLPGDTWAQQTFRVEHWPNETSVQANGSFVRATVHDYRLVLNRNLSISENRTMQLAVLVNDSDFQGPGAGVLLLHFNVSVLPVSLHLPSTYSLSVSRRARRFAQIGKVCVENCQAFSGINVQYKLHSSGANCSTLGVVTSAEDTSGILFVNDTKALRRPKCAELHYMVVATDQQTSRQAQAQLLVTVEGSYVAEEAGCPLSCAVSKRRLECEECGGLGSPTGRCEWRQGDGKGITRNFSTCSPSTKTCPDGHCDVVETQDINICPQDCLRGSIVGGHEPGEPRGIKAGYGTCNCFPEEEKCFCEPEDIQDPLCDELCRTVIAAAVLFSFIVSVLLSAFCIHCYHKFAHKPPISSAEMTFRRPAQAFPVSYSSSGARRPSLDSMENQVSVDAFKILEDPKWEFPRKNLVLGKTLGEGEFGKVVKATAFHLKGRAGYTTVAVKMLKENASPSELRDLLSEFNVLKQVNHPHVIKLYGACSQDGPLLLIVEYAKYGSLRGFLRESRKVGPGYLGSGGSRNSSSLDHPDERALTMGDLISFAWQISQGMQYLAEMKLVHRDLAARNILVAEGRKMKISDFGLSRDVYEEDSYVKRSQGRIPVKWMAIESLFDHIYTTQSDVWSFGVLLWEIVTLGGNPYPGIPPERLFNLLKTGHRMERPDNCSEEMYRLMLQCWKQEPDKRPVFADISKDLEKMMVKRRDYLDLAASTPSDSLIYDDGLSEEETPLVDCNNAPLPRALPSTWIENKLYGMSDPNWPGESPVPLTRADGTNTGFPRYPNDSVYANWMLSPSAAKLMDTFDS
T10 sequence (P17948 27-1338, species assumed): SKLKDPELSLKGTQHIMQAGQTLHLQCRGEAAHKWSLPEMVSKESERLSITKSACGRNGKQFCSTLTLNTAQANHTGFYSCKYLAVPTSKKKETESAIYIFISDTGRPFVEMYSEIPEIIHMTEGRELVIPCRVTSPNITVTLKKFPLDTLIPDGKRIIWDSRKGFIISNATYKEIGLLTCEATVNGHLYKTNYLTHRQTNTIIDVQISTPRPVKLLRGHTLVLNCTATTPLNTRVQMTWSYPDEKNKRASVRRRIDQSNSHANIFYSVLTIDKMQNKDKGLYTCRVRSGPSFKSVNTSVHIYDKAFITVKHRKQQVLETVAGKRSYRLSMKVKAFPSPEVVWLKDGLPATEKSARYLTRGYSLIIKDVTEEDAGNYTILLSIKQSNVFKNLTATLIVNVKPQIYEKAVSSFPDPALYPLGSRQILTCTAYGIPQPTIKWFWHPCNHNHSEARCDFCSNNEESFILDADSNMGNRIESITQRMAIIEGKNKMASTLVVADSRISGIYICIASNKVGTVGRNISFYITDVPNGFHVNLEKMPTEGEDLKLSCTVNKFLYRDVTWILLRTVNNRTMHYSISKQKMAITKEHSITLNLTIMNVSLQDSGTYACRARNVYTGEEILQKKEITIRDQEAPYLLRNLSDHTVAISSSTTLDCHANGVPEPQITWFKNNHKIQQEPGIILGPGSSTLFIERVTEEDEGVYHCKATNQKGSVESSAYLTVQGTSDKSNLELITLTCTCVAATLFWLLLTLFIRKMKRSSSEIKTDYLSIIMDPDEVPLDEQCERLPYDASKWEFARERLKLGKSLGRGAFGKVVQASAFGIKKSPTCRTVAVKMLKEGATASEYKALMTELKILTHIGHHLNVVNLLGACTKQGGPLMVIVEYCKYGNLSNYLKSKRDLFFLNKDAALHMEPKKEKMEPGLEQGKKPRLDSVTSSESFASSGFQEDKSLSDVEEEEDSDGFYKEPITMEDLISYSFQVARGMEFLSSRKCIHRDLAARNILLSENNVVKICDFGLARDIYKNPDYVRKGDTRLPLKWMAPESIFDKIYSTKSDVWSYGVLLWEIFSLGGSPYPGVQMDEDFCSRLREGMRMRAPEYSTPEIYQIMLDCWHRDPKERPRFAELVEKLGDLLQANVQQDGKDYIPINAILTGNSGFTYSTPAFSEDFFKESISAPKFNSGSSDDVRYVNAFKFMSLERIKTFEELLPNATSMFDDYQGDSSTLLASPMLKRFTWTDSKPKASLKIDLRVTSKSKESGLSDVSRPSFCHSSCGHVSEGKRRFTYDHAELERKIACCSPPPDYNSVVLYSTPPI

Consider `COc1cc(Nc2ncnc(-n3c(NCc4cccc(C)c4)nc4ccccc43)n2)cc(OC)c1OC` [Compound 515], for which the IC50 in test [1] was under 0.804 µM; in test [2], over 9.04 µM; in test [3], over 9.04 µM; in test [4], over 9.04 µM; in [5], over 9.04 µM; in test [6], over 9.04 µM. In addition, the IC50 was over 9.04 µM in test [7]; over 9.04 µM in test [8]; under 0.804 µM in test [9]; 0.804 to 4.82 µM in test [10]; 7.03 to 9.04 µM in test [11]; over 9.04 µM in test [12]. The IC50 was over 9.04 µM in [13]; over 9.04 µM in [14]; under 0.804 µM in [15]; over 9.04 µM in test [16]; over 9.04 µM in [17]; under 0.804 µM in test [18]. In test [19], the IC50 is under 0.804 µM.
On to `COc1cc(Nc2ncnc(-n3c(NCc4ccc(C)cc4)nc4ccccc43)n2)cc(OC)c1OC` [Compound 516], for which the IC50 in test [1] was 4.82 to 7.03 µM; in [2], over 9.04 µM; in [3], over 9.04 µM; in [4], over 9.04 µM; in [5], over 9.04 µM; in test [6], over 9.04 µM. Moreover, the IC50 in test [7] is over 9.04 µM; in [8], over 9.04 µM; in [9], under 0.804 µM; in test [10], 4.82 to 7.03 µM; in [11], over 9.04 µM; in test [12] it was over 9.04 µM. Besides, the IC50 in [13] is over 9.04 µM; in test [14], over 9.04 µM; in test [15], 7.03 to 9.04 µM; in [16] it was over 9.04 µM; in [17] it was over 9.04 µM; in [18] it was under 0.804 µM. Also, the IC50 in test [19] is under 0.804 µM.
`COc1cc(Nc2ncnc(-c3c(O)[nH]c4ccc(Cl)cc34)n2)cc(OC)c1OC` [Compound 517]: the IC50 in test [1] is 0.935 to 5.61 µM; in test [2] it was 8.18 to 10.5 µM; in test [3], over 10.5 µM; in test [4] it was 5.61 to 8.18 µM; in test [5], over 10.5 µM; in test [6], 8.18 to 10.5 µM. Also, the IC50 is 5.61 to 8.18 µM in test [7]; 5.61 to 8.18 µM in [8]; under 0.935 µM in test [9]; under 0.935 µM in test [10]; 5.61 to 8.18 µM in [11]; 8.18 to 10.5 µM in [12]. Also, the IC50 was over 10.5 µM in test [13]; 0.935 to 5.61 µM in [14]; 0.935 to 5.61 µM in [15]; over 10.5 µM in test [16]; over 10.5 µM in test [17]; 5.61 to 8.18 µM in [18]. Besides, in test [19], the IC50 lay within 0.935 to 5.61 µM.
